According to patent US8283353B2, “Fused ring compound and use thereof” (Takeda Pharmaceutical Company Limited, priority 2009, dated 2012):

Experiments:
[1] = target: T1, human AT1 receptor (Homo sapiens, UniProt P30556); test: AT1 receptor antagonistic activity: [125I]-angiotensin II binding assay on human AT1 receptor-expressing CHO-K1 cellular membrane fraction; conditions: 22.5 pM [125I]-angiotensin II, 1 hr room temperature
T1 construct: expressed in transfected cells; membrane fraction
T1 sequence (P30556 1-359): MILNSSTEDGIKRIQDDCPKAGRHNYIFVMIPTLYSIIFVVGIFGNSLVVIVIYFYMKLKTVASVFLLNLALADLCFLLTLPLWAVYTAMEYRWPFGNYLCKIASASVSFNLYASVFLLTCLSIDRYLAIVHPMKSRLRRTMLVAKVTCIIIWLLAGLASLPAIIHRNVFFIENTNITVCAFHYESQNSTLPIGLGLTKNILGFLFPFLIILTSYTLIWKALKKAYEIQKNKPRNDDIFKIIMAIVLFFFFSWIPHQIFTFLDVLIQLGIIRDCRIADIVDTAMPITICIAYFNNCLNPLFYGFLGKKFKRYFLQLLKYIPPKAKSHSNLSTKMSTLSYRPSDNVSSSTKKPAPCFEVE
Procedure, shortened: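 Competition binding used radiolabelled angiotensin II on stably transfected CHO-K1 membrane fractions in Tris pH 7.4/MgCl2 buffer, optionally containing 0.3 mg/mL fatty acid-free BSA, 1 hr at room temperature. Filtration onto GF/C separated bound tracer, and nonspecific binding was measured with candesartan.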

[2] = target: T2, human PPARγ (Homo sapiens, UniProt P37231); test: PPARγ agonistic activity: luciferase reporter assay in PPARγ:RXRα:4ERPP/CHO-K1 cells; type: cell-based; conditions: CHO-K1, test compound 10^−6 M; luciferase activity of control compound X (1 μM) = 100%, non-administration group = 0%
T2 construct: expressed in transfected cells
T2 sequence (P37231 1-477 isoform P37231-2): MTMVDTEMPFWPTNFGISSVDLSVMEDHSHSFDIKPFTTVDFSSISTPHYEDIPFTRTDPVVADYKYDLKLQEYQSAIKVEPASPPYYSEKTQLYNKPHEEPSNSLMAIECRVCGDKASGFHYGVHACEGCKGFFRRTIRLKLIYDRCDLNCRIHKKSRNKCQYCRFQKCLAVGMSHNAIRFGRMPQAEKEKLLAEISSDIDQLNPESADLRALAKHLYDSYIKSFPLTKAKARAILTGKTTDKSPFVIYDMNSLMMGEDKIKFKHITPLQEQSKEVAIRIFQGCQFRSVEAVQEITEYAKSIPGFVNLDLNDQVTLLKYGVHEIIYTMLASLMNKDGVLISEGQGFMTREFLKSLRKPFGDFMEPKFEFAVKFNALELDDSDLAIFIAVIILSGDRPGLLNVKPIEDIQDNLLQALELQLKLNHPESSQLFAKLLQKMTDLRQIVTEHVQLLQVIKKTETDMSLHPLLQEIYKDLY
T2 sequence (P19793 1-462 partner): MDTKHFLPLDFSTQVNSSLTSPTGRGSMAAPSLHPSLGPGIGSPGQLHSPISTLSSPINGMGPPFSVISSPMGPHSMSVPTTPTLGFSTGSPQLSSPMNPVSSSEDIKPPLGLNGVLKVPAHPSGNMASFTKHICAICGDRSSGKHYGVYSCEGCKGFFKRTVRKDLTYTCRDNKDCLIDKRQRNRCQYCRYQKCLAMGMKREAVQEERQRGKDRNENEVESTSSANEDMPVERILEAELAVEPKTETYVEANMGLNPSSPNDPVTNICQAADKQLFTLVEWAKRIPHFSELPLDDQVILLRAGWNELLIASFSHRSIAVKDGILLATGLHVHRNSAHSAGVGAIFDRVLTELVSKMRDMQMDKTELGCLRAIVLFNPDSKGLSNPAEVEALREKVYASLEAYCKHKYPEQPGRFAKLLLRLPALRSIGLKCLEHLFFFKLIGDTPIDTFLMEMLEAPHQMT
Procedure, shortened: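 Activity is expressed relative to untreated cells (0%) and 1 μM reference compound X (100%), from luciferase luminescence. Reporter line: PPARγ:RXRα:4ERPP/CHO-K1, exposed to compound for one day at 37 °C in F12 medium containing 0.1% fatty-acid-free BSA.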

IC50 [1] | activation at 1 µM [2] | Compound
2.5 nM | 41% | CCCc1c(Cc2ccc(-c3ccccc3-c3noc(=O)[nH]3)cc2)c(=O)n([C@H]2CC[C@H](c3cnco3)CC2)c2ncnn12 [Example 184, 4-[trans-4-(1,3-oxazol-5-yl)cyclohexyl]-6-{[2′-(5-oxo-4,5-dihydro-1,2,4-oxadiazol-3-yl)biphenyl-4-yl]methyl}-7-propyl[1,2,4]triazolo[1,5-a]pyrimidin-5(4H)-one]
2.2 nM | 20% | CCCc1c(Cc2ccc(-c3ccccc3-c3noc(=O)[nH]3)cc2)c(=O)n([C@H]2CC[C@@H](Oc3ccc(C(C)=O)cc3)CC2)c2ncnn12 [Example 277, 4-[cis-4-(4-acetylphenoxy)cyclohexyl]-6-{[2′-(5-oxo-4,5-dihydro-1,2,4-oxadiazol-3-yl)biphenyl-4-yl]methyl}-7-propyl[1,2,4]triazolo[1,5-a]pyrimidin-5(4H)-one]
1.3 nM | 26% | CCCCc1c(Cc2ccc(-c3ccccc3-c3noc(=O)[nH]3)cc2)c(=O)n(C2CCOC(C)(C)C2)c2ncnn12 (stereo not shown) [Example 134, 7-butyl-4-(2,2-dimethyltetrahydro-2H-pyran-4-yl)-6-{[2′-(5-oxo-4,5-dihydro-1,2,4-oxadiazol-3-yl)biphenyl-4-yl]methyl}[1,2,4]triazolo[1,5-a]pyrimidin-5(4H)-one]
2.2 nM | 23% | CCCCc1c(Cc2ccc(-c3ccccc3-c3noc(=O)[nH]3)cc2)c(=O)n([C@H]2CC[C@H](OC(C)C(C)(C)O)CC2)c2ncnn12 (stereo partly drawn) [Example 206, 7-butyl-4-[trans-4-(2-hydroxy-1,2-dimethylpropoxy)cyclohexyl]-6-{[2′-(5-oxo-4,5-dihydro-1,2,4-oxadiazol-3-yl)biphenyl-4-yl]methyl}[1,2,4]triazolo[1,5-a]pyrimidin-5(4H)-one]
2.5 nM | 35% | CCCc1c(Cc2ccc(-c3ccccc3-c3noc(=O)[nH]3)cc2F)c(=O)n([C@H]2CC[C@H](OC(C)C#N)CC2)c2nc(C)nn12 (stereo partly drawn) [Example 249, 2-({trans-4-[6-{[3-fluoro-2′-(5-oxo-4,5-dihydro-1,2,4-oxadiazol-3-yl)biphenyl-4-yl]methyl}-2-methyl-5-oxo-7-propyl[1,2,4]triazolo[1,5-a]pyrimidin-4(5H)-yl]cyclohexyl}oxy)propanenitrile]
1.9 nM | 41% | CCCc1c(Cc2ccc(-c3ccccc3-c3noc(=O)[nH]3)cc2)c(=O)n(C2CCC3(CC2)OCC(C)(C)O3)c2ncnn12 (stereo not shown) [Example 179, 4-(2,2-dimethyl-1,4-dioxaspiro[4.5]dec-8-yl)-6-{[2′-(5-oxo-4,5-dihydro-1,2,4-oxadiazol-3-yl)biphenyl-4-yl]methyl}-7-propyl[1,2,4]triazolo[1,5-a]pyrimidin-5(4H)-one]
1.9 nM | 19% | CCCc1c(Cc2ccc(-c3ccccc3-c3noc(=O)[nH]3)cc2)c(=O)n([C@H]2CC[C@H](OC(CC)C(C)(C)O)CC2)c2ncnn12 (stereo partly drawn) [Example 348, 4-[trans-4-(1-ethyl-2-hydroxy-2-methylpropoxy)cyclohexyl]-6-{[2′-(5-oxo-4,5-dihydro-1,2,4-oxadiazol-3-yl)biphenyl-4-yl]methyl}-7-propyl[1,2,4]triazolo[1,5-a]pyrimidin-5(4H)-one]
1.6 nM | 35% | CCCc1c(Cc2ccc(-c3ccccc3-c3noc(=O)[nH]3)cc2)c(=O)n([C@H]2CC[C@@]3(CCCO3)CC2)c2ncnn12 [Example 151, 4-[(5R,8R)-1-oxaspiro[4.5]dec-8-yl]-6-{[2′-(5-oxo-4,5-dihydro-1,2,4-oxadiazol-3-yl)biphenyl-4-yl]methyl}-7-propyl[1,2,4]triazolo[1,5-a]pyrimidin-5(4H)-one]
3.2 nM | 16% | CCCc1c(Cc2ccc(-c3ccccc3-c3noc(=O)[nH]3)cc2)c(=O)n(C2CCN(Cc3ccccc3)CC2)c2ncnn12 [Example 373, 4-(1-benzylpiperidin-4-yl)-6-{[2′-(5-oxo-4,5-dihydro-1,2,4-oxadiazol-3-yl)biphenyl-4-yl]methyl}-7-propyl[1,2,4]triazolo[1,5-a]pyrimidin-5(4H)-one]
1.6 nM | 40% | CCCc1c(Cc2ccc(-c3ccccc3-c3noc(=O)[nH]3)cc2)c(=O)n([C@H]2CC[C@@H](OCCO)CC2)c2ncnn12 [Example 163, 4-[cis-4-(2-hydroxyethoxy)cyclohexyl]-6-{[2′-(5-oxo-4,5-dihydro-1,2,4-oxadiazol-3-yl)biphenyl-4-yl]methyl}-7-propyl[1,2,4]triazolo[1,5-a]pyrimidin-5(4H)-one]
1.4 nM | 54% | CCCc1c(Cc2ccc(-c3ccccc3-c3noc(=O)[nH]3)cc2)c(=O)n([C@H]2CC[C@H](c3nc(C)no3)CC2)c2ncnn12 [Example 169, 4-[trans-4-(3-methyl-1,2,4-oxadiazol-5-yl)cyclohexyl]-6-{[2′-(5-oxo-4,5-dihydro-1,2,4-oxadiazol-3-yl)biphenyl-4-yl]methyl}-7-propyl[1,2,4]triazolo[1,5-a]pyrimidin-5(4H)-one]
1.6 nM | 30% | CCCc1c(Cc2ccc(-c3ccccc3-c3noc(=O)[nH]3)cc2F)c(=O)n([C@H]2CC[C@H](OCC(C)O)CC2)c2ccnn12 (relative stereo) [Example 437, 6-{[3-fluoro-2′-(5-oxo-4,5-dihydro-1,2,4-oxadiazol-3-yl)biphenyl-4-yl]methyl}-4-[trans-4-(2-hydroxypropoxy)cyclohexyl]-7-propylpyrazolo[1,5-a]pyrimidin-5(4H)-one]
2 nM | 23% | CCCc1c(Cc2ccc(-c3ccccc3-c3noc(=O)[nH]3)cc2)c(=O)n([C@H]2CC[C@](C)(OCC(C)(C)O)CC2)c2ncnn12 [Example 385, 4-[trans-4-(2-hydroxy-2-methylpropoxy)-4-methylcyclohexyl]-6-{[2′-(5-oxo-4,5-dihydro-1,2,4-oxadiazol-3-yl)biphenyl-4-yl]methyl}-7-propyl[1,2,4]triazolo[1,5-a]pyrimidin-5(4H)-one]
3.2 nM | 18% | CCCc1c(Cc2ccc(-c3ccccc3-c3nnn[nH]3)cc2)c(=O)n(C2CCC3(CC2)OC(C)(C)C(C)(C)O3)c2ncnn12 [Example 181, 7-propyl-4-(2,2,3,3-tetramethyl-1,4-dioxaspiro[4.5]dec-8-yl)-6-{[2′-(1H-tetrazol-5-yl)biphenyl-4-yl]methyl}[1,2,4]triazolo[1,5-a]pyrimidin-5(4H)-one]
1 nM | 18% | CCCc1c(Cc2ccc(-c3ccccc3-c3noc(=O)[nH]3)cc2)c(=O)n([C@H]2CC[C@H](OCCO)CC2)c2ncnn12 [Example 164, 4-[trans-4-(2-hydroxyethoxy)cyclohexyl]-6-{[2′-(5-oxo-4,5-dihydro-1,2,4-oxadiazol-3-yl)biphenyl-4-yl]methyl}-7-propyl[1,2,4]triazolo[1,5-a]pyrimidin-5(4H)-one]
2.1 nM | 35% | CCCCc1c(Cc2ccc(-c3ccccc3-c3noc(=O)[nH]3)cc2)c(=O)n([C@H]2CC[C@H](OCC(C)(C)O)CC2)c2ncnn12 [Example 232, 7-butyl-4-[trans-4-(2-hydroxy-2-methylpropoxy)cyclohexyl]-6-{[2′-(5-oxo-4,5-dihydro-1,2,4-oxadiazol-3-yl)biphenyl-4-yl]methyl}[1,2,4]triazolo[1,5-a]pyrimidin-5(4H)-one]
1.4 nM | 54% | CCCc1c(Cc2ccc(-c3ccccc3-c3noc(=O)[nH]3)cc2)c(=O)n([C@H]2CC[C@H](C(=O)OCC)CC2)c2ncnn12 [Example 168, ethyl trans-4-[5-oxo-6-{[2′-(5-oxo-4,5-dihydro-1,2,4-oxadiazol-3-yl)biphenyl-4-yl]methyl}-7-propyl[1,2,4]triazolo[1,5-a]pyrimidin-4(5H)-yl]cyclohexanecarboxylate]
